In patent publication US20140011826A1, “METABOTROPIC GLUTAMATE RECEPTOR GROUP I ANTAGONISTS FOR TREATMENT OF ABNORMAL UNION OF TISSUE” (priority 2011, published 2014):

Tested on: post-operative intra abdominal adhesions
Test: Post-operative intra abdominal adhesion formation in rat after laparotomy and musculoperitoneal incision
Type: in vivo
Description: Reduction in the occurrence of post-operative intra abdominal adhesions in rat by treatment with the mGluRgIa compound 2-methyl-6-(phenylethynyl)-pyridine (MPEP) at a dose of 12.5 mg/kg 12 male Sprague-Dawleys rats (Charles River Laboratories International, Sutzfeld, Germany), weighing between 250 to 300 g at the initiation of the procedure, were kept at a number of two individuals in one cage of type H3, lined with wood chips and housed in standardized conditions, at a constant room temperature (22° C.) with 12-hour light and dark cycles. All animals were provided free access to standard rodent chow, tap water, nesting material and libitum. All surgical procedures were performed under aseptic conditions in a dedicated surgical animal operating room. The animals were anesthetized using continuous inhalation isoflurane 1.5% to 4% in oxygen, numbered and randomly assigned to two groups of 6 individuals each: one treatment group and one vehicle group. After shaving and disinfection of the abdomen, a 50 mm long midline laparotomy was performed to gain access to the abdominal cavity. A 18 mm long sharp incision was then made through the musculoperitoneal tissue on the left lateral abdominal wall below the epigastric vessel parallel with the midline incision. The injury site was immediately closed with four single sutures places equidistantly using 5-0 polypropylene threat (Prolene; Ethicon, Johnson & Johnson, Somerville, N.J., USA). Just before closing the abdomen, the animals received either mGluRgIa (MPEP 45.35 mM in vehicle) at a dose of 12.5 mg MPEP/kg (treatment group), or vehicle (0.9% NaC1, 10 w % dimethylacetatamide, ˜50 mM hydrochloride, vehicle group), by injecting the solution into the abdominal cavity. The midline laparotomy was then closed in two layers continuous suture using 5-0 polypropylene for the abdomen and 4-0 for the skin. […] Formation of adhesions between the injury site and other uninjured structures within the abdominal cavity was macroscopically evaluated and quantified using the grading ‘0’ for absence of adhesions or ‘1’ for formed adhesions.

**Q.** `Cc1cccc(C#Cc2ccccc2)n1` [MPEP, 2-methyl-6-(phenylethynyl)-pyridine] was tested. Which “animals that had developed adhesions” value (male Sprague-Dawley rats, 12.5 mg MPEP/kg injected into the abdominal cavity just before closing, evaluated macroscopically after one week, vehicle group 4 of 6) did it give?
**A.** The value was 1 of the 6 animals.

**Q.** What about the “adhesions at the scar of the incision (picture of open abdomen)” value (treated rat no. 3 of Example 1, Pic. 1, 18 mm incision on left lateral abdominal wall) of the same molecule?
**A.** The value was “no visible adhesions”.

**Q.** And the “adhesion grading per animal (six animals, one digit each)” value (treatment group, 12.5 mg MPEP/kg into the abdominal cavity, one week after surgery, vehicle group=111100)?
**A.** Its value is 100000.
